A short description of data set [1]: Metabolic stability in human liver microsomes assessed as half life. In kind it is ADME, Microsome. The settings on record: for half-life: liver microsomes.
Data set [2] has as its target Human immunodeficiency virus type 1 reverse transcriptase (Human immunodeficiency virus 1, UniProt Q72547). Put plainly: Inhibition of HIV-1 reverse transcriptase.
Data set [3] can be described thus: Cytotoxicity against African green monkey Vero E6 cells. In kind it is toxicity, cell-based, Vero C1008. The settings on record: chlorocebus sabaeus.
The test system of data set [4] is SARS-CoV-2. In words: Antiviral activity against SARS CoV-2 USA-WA1/2020 clinical isolate infected in human Calu-3 cells assessed as reduction in viral infection. In kind it is functional, organism-based. The settings on record: Severe acute respiratory syndrome coronavirus 2, USA-WA1/2020, Calu-3.
The subject of data set [5] is SARS-CoV-2. In words: Antiviral activity against SARS-CoV-2 2019-nCoV/USA_WA1/2020 infected in African green monkey Vero E6 cells assessed as reduction in viral replication pre-treated with compound for 30 mins followed by viral infection and measured after 48 hrs. In kind it is functional, organism-based. To be noted: Severe acute respiratory syndrome coronavirus 2, 2019-nCoV/USA_WA1/2020, Vero C1008.

Data set [6] relates to SARS-CoV-2. In words: Antiviral activity against SARS-CoV-2 2019-nCoV/USA_WA1/2020 infected in human PSC-derived lung epithelial cell assessed as reduction in viral replication pre-treated with compound for 30 mins followed by viral infection and measured after 48 hrs. In kind it is functional, organism-based. The settings on record: Severe acute respiratory syndrome coronavirus 2, 2019-nCoV/USA_WA1/2020, Epithelial cell.

The subject of data set [7] is SARS-CoV-2. Put plainly: Antiviral activity against SARS-CoV-2 2019-nCoV/USA_WA1/2020 infected in human Calu-3 cells assessed as reduction in viral replication pre-treated with compound for 30 mins followed by viral infection and measured after 48 hrs. In kind it is functional, organism-based. The settings on record: Severe acute respiratory syndrome coronavirus 2, 2019-nCoV/USA_WA1/2020, Calu-3.

In data set [8] the test system is SARS-CoV-2. Put plainly: Antiviral activity against SARS-CoV-2 2019-nCoV/USA_WA1/2020 infected in human Caco-2 cells assessed as reduction in viral replication pre-treated with compound for 30 mins followed by viral infection and measured after 48 hrs. In kind it is functional, organism-based. To be noted: Severe acute respiratory syndrome coronavirus 2, 2019-nCoV/USA_WA1/2020, Caco-2.

Data set [9] relates to SARS-CoV-2. In words: Antiviral activity against SARS-CoV-2 2019-nCoV/USA_WA1/2020 infected in human Huh7.5 cells assessed as reduction in viral replication pre-treated with compound for 30 mins followed by viral infection and measured after 48 hrs. To be noted: Severe acute respiratory syndrome coronavirus 2, 2019-nCoV/USA_WA1/2020, Huh7.5. In kind it is functional, organism-based.

Here are results for 19 compounds from ChEMBL document CHEMBL5608175, “Lipid-conjugated nucleoside monophosphate and monophosphonate prodrugs: A versatile drug delivery paradigm” (Eur J Med Chem, 2024).

SMILES strings stand for the structures.

Regarding `C[C@H](Cn1cnc2c(N)ncnc21)OCP(=O)(O)OCCOCCCCCCCCCCCCc1ccc(S(F)(F)(F)(F)F)cc1`, the half-life – broadly, the time in which the quantity being followed falls by half – in data set [1] is greater than 120 min. Further, 20 nM corresponded to half-maximal inhibition in data set [2] (IC50). Moreover, in [3], the CC50 (as a rule, the concentration that lowers cell viability or growth by half) is greater than 100 µM.

As for `C[C@H](Cn1cnc2c(N)ncnc21)OCP(=O)(O)OCCOCCCCCCCCCCCCCCCC(F)(F)F`, in data set [1], the half-life was greater than 120 min. Besides, in [2], half-maximal inhibition (IC50) required 8 nM. In addition, the cytotoxic concentration (CC50) in data set [3] is greater than 100 µM.

Regarding `CCCCOCCCCCOCCCCCOCCCOP(=O)(O)CO[C@H](C)Cn1cnc2c(N)ncnc21`, the IC50 (as a rule, the concentration that gives 50% inhibition) in data set [2] came to 32000 nM. In [3], the CC50 was greater than 100 µM.

For the compound `C[C@H](Cn1cnc2c(N)ncnc21)OCP(=O)(O)OCCOCCCCCCCCCCC#Cc1ccc(S(F)(F)(F)(F)F)cc1`, the half-life in data set [1] is greater than 120 min. The compound also had an IC50 in data set [2] of 10 nM. This compound also showed a CC50 in [3] greater than 100 µM.

For `CCCCCCCCCCCCCCCCSCCCOP(=O)(O)CO[C@H](C)Cn1cnc2c(N)ncnc21`, the t1/2 in data set [1] (microsomes) is given as 42 min. The same compound gave an IC50 in data set [2] of 10 nM. Further, the midpoint of cytotoxicity in [3], the CC50, lay at 49.8 µM.

In the case of `CCCCCCCCCCCCCCCOCCCCOP(=O)(O)CO[C@H](C)Cn1cnc2c(N)ncnc21`, the half-life in [1] is 48 min. The midpoint of inhibition in data set [2], the IC50, lay at 30 nM. This compound also gave a CC50 in data set [3] greater than 100 µM.

Consider `CCCCCCCCCCCCCCCCCCOC[C@@H](COP(=O)(O)OC[C@H]1O[C@@](C#N)(c2ccc3c(N)ncnn23)[C@H](O)[C@@H]1O)OCc1ccc(OC)c(F)c1`, for which the 50% effective concentration (EC50) (commonly the concentration giving half of the maximal effect) in data set [4] worked out at 70 nM.

Consider `C[C@H](Cn1cnc2c(N)ncnc21)OCP(=O)(O)OCCOCCCCCCCCCCCCCC#CC(F)(F)F`, for which, in data set [1], the half-life is greater than 120 min. In [2], this compound yielded an IC50 of 16 nM. For the same compound, the CC50 in data set [3] is greater than 100 µM.

Take `C[C@H](Cn1cnc2c(N)ncnc21)OCP(=O)(O)OCCOCCCCCCCCCCCCCCCCC(F)(F)F`: the half-life in data set [1] is greater than 120 min. This compound also came in with an IC50 in [2] of 10 nM. This compound also showed a CC50 in [3] of 85.1 µM.

With `C[C@H](Cn1cnc2c(N)ncnc21)OCP(=O)(O)OCCOCCCCCCCCCCCCCCC#CC(F)(F)F`, the half-life in [1] is greater than 120 min. The IC50 in data set [2] was 10 nM. For the same compound, the CC50 in data set [3] was greater than 100 µM.

Take `CCCCCCCCCCCCCCCCCCOC[C@@H](COP(=O)(O)OC[C@H]1O[C@@](C#N)(c2ccc3c(N)ncnn23)[C@H](O)[C@@H]1O)OCc1cccc(C#N)c1`: in data set [4], the EC50 came out at 34 nM.

In the case of `CCCCCCCCCCCCCCCCCCOCCOP(=O)(O)CO[C@H](C)Cn1cnc2c(N)ncnc21`, the half-life in data set [1] was 105 min. Also, in [2], 3 nM corresponded to half-maximal inhibition (IC50). Besides, the CC50 in data set [3] is 53.8 µM.

For the compound `CCCCCCCCCCCCCCCCCOCCOP(=O)(O)CO[C@H](C)Cn1cnc2c(N)ncnc21`, the half-life in data set [1] was found to be 35 min. The same compound had an IC50 in [2] of 3 nM. In data set [3], this compound registered a CC50 of 69.6 µM.

Turning to `CCCCCCCCCCCCCCCCCCCCOP(=O)(O)CO[C@H](C)Cn1cnc2c(N)ncnc21`, in [1], the half-life stood at 49 min. The compound further returned a half-inhibitory concentration (IC50) in [2] of 127 nM. In [3], this compound displayed a CC50 of 13.2 µM.

`CCCCCCCCCCCCCCOCCCCCOP(=O)(O)CO[C@H](C)Cn1cnc2c(N)ncnc21`: the half-life in data set [1] came out at 31 min. In data set [2], this compound returned a half-maximal inhibitory concentration (IC50) of 52 nM. For the same compound, in [3], the CC50 is greater than 100 µM.

As for `CCCCCCCCCCCCCCCCCCOC[C@@H](COP(=O)(O)OC[C@H]1O[C@@](C#N)(c2ccc3c(N)ncnn23)[C@H](O)[C@@H]1O)OCc1ccccc1`, the EC50 turned out to be 140 nM in data set [5]; 150 nM in data set [6]; 300 nM in data set [7]; 140 nM in data set [8]; 300 nM in data set [9].

For the compound `CCCCCCCCCCCCCCCCCCOC[C@@H](COP(=O)(O)OC[C@H]1O[C@@](C#N)(c2ccc3c(N)ncnn23)[C@H](O)[C@@H]1O)OCc1ccc(C#N)cc1`, in [4], the EC50 stood at 43 nM.

Take `C[C@H](Cn1cnc2c(N)ncnc21)OCP(=O)(O)O` [TENOFOVIR ANHYDROUS]: the half-life in [1] was greater than 120 min. In data set [2], this compound showed an IC50 of 1600 nM. This compound came in with a CC50 in data set [3] of 35.4 µM.

With `CCCCCCCCOCCCCCOCCCCCOP(=O)(O)CO[C@H](C)Cn1cnc2c(N)ncnc21`, in data set [1], the half-life turned out to be 12 min. Also, in data set [2], inhibition was half-maximal at 4000 nM (IC50). In [3], this compound had a CC50 greater than 100 µM.
